According to patent EP0327492A1, “Herbicidally and plantgrowth regulatory active quinoline and pyrindine compounds” (CIBA-GEIGY AG, priority 1988, dated 1989):

Tests used:
Assay type in all cases: in vivo
[1] = test system: Soja; experiment: Pre-emergent herbicidal action (B.2), crop tolerance; details: 500 bis 2000 [g/ha], evaluated after 3 weeks
Description: (§1) Im Gewächshaus wird unmittelbar nach der Einsaat der Versuchspflanzen in Saatschalen die Erdoberfläche mit einer wässrigen Dispersion der Wirkstoffe, erhalten aus einem 25 %igen Emulsionskonzentrat behandelt. Es werden Konzentrationen von 2000-500 g Wirksubstanz/Hektar angewendet. Die Saatschalen werden im Gewächshaus bei 22-25° C und 50-70 % relativer Luftfeuchtigkeit gehalten und der Versuch nach 3 Wochen ausgewertet und die Resultate nach folgender Notenskala ausgewertet. • 1 Pflanze hat nicht gekeimt oder ist eingegangen • 2-3 sehr starke Schäden • 4 starke Schäden • 5 mittlere Schäden, die Pflanzen sind verkümmert • 6 Schäden, die Pflanze kann regenerieren • 7-8 leichte Schäden • 9 normales Wachstum, wie das unbehandelter Pflanzen
(§2) Boniturnoten von 1 bis 4 (insbesondere von 1 bis 3) weisen auf eine gute bis sehr gute Herbizidwirkung hin. Boniturnoten von 6 bis 9 (insbesondere 7 bis 9) weisen auf eine gute Toleranz (insbesondere bei Kulturpflanzen) hin.

[2] = test system: Soja; experiment: Post-emergent herbicidal action (B.3), crop tolerance; details: 500 bis 2000 [g/ha], 15 days after treatment
Description: as §1, §2
(§3) Eine Anzahl Unkräuter, sowohl monokotyle wie dikotyle, werden nach dem Auflaufen (im 4- bis 6-Blattstadium) mit einer wässrigen Wirkstoffdispersion in einer Dosierung von 2000-500 g Wirksubstanz pro Hektar auf die Pflanzen gespritzt und diese bei 24°-26°C und 45-60 % relativer Luftfeuchtigkeit gehalten. 15 Tage nach der Behandlung wird der Versuch nach dem in Beispiel B.2. gegebenen Massstab bewertet.

[3] = test system: Baumwolle; experiment: as above; details: 500 bis 2000 [g/ha], 15 days after treatment
Description: as §1, §2, §3

[4] = test system: Alopecurus myos.; experiment: Pre-emergent herbicidal action (B.2); details: 500 bis 2000 [g/ha], evaluated after 3 weeks
Description: as §1, §2

[5] = test system: Sinapis; experiment: Pre-emergent herbicidal action (B.2); details: 500 bis 2000 [g/ha], evaluated after 3 weeks
Description: as §1, §2

[6] = test system: Sorghum halep.; experiment: Pre-emergent herbicidal action (B.2); details: 500 bis 2000 [g/ha], evaluated after 3 weeks
Description: as §1, §2

[7] = test system: Bromus tectorum; experiment: Pre-emergent herbicidal action (B.2); details: 500 bis 2000 [g/ha], evaluated after 3 weeks
Description: as §1, §2

[8] = test system: Lolium perenne; experiment: Pre-emergent herbicidal action (B.2); details: 500 bis 2000 [g/ha], evaluated after 3 weeks
Description: as §1, §2

[9] = test system: Ipomoea; experiment: Pre-emergent herbicidal action (B.2); details: 500 bis 2000 [g/ha], evaluated after 3 weeks
Description: as §1, §2

[10] = test system: Avena fatua; experiment: Pre-emergent herbicidal action (B.2); details: 500 bis 2000 [g/ha], evaluated after 3 weeks
Description: as §1, §2

[11] = test system: Veronica Sp.; experiment: Pre-emergent herbicidal action (B.2); details: 500 bis 2000 [g/ha], evaluated after 3 weeks
Description: as §1, §2

[12] = test system: Chenopodium Sp.; experiment: Pre-emergent herbicidal action (B.2); details: 500 bis 2000 [g/ha], evaluated after 3 weeks
Description: as §1, §2

[13] = test system: Amaranthus ret.; experiment: Pre-emergent herbicidal action (B.2); details: 500 bis 2000 [g/ha], evaluated after 3 weeks
Description: as §1, §2

[14] = test system: Digitaria sang.; experiment: Pre-emergent herbicidal action (B.2); details: 500 bis 2000 [g/ha], evaluated after 3 weeks
Description: as §1, §2

[15] = test system: Echinochloa crus galli; experiment: Pre-emergent herbicidal action (B.2); details: 500 bis 2000 [g/ha], evaluated after 3 weeks
Description: as §1, §2

[16] = test system: Galium aparine; experiment: Pre-emergent herbicidal action (B.2); details: 500 bis 2000 [g/ha], evaluated after 3 weeks
Description: as §1, §2

[17] = test system: Stellaria; experiment: Pre-emergent herbicidal action (B.2); details: 500 bis 2000 [g/ha], evaluated after 3 weeks
Description: as §1, §2

[18] = test system: Abutilon; experiment: Pre-emergent herbicidal action (B.2); details: 500 bis 2000 [g/ha], evaluated after 3 weeks
Description: as §1, §2

[19] = test system: Solanum nigrum; experiment: Pre-emergent herbicidal action (B.2); details: 500 bis 2000 [g/ha], evaluated after 3 weeks
Description: as §1, §2

[20] = test system: Chrysanthe. leuc.; experiment: Pre-emergent herbicidal action (B.2); details: 500 bis 2000 [g/ha], evaluated after 3 weeks
Description: as §1, §2

[21] = test system: Alopecurus myos.; experiment: Post-emergent herbicidal action, contact herbicide (B.3); details: 500 bis 2000 [g/ha], 15 days after treatment
Method in brief: (§4)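 Weeds at the 4- to 6-leaf stage were sprayed post-emergence with an aqueous dispersion of active ingredient at 2000-500 g a.i./ha. Plants were held at 24-26 °C and 45-60% relative humidity. Damage was scored 15 days after treatment on a 1-9 scale, from 1 (dead) to 9 (growth like untreated plants).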

[22] = test system: Sinapis; experiment: as above; details: 500 bis 2000 [g/ha], 15 days after treatment
Method in brief: as §4

[23] = test system: Sorghum halep.; experiment: as above; details: 500 bis 2000 [g/ha], 15 days after treatment
Method in brief: as §4

[24] = test system: Bromus tectorum; experiment: as above; details: 500 bis 2000 [g/ha], 15 days after treatment
Method in brief: as §4

[25] = test system: Lolium perenne; experiment: as above; details: 500 bis 2000 [g/ha], 15 days after treatment
Method in brief: as §4

[26] = test system: Avena fatua; experiment: as above; details: 500 bis 2000 [g/ha], 15 days after treatment
Method in brief: as §4

[27] = test system: Veronica Sp.; experiment: as above; details: 500 bis 2000 [g/ha], 15 days after treatment
Method in brief: as §4

[28] = test system: Chenopodium Sp.; experiment: as above; details: 500 bis 2000 [g/ha], 15 days after treatment
Method in brief: as §4

[29] = test system: Amaranthus ret.; experiment: as above; details: 500 bis 2000 [g/ha], 15 days after treatment
Method in brief: as §4

[30] = test system: Digitaria sang.; experiment: as above; details: 500 bis 2000 [g/ha], 15 days after treatment
Method in brief: as §4

[31] = test system: Echinochloa crus galli; experiment: as above; details: 500 bis 2000 [g/ha], 15 days after treatment
Method in brief: as §4

[32] = test system: Galium aparine; experiment: as above; details: 500 bis 2000 [g/ha], 15 days after treatment
Method in brief: as §4

[33] = test system: Xanthium Sp.; experiment: as above; details: 500 bis 2000 [g/ha], 15 days after treatment
Method in brief: as §4

[34] = test system: Stellaria; experiment: as above; details: 500 bis 2000 [g/ha], 15 days after treatment
Method in brief: as §4

[35] = test system: Abutilon; experiment: as above; details: 500 bis 2000 [g/ha], 15 days after treatment
Method in brief: as §4

[36] = test system: Solanum nigrum; experiment: as above; details: 500 bis 2000 [g/ha], 15 days after treatment
Method in brief: as §4

[37] = test system: Chrysanthe. leuc.; experiment: as above; details: 500 bis 2000 [g/ha], 15 days after treatment
Method in brief: as §4

CC1CCc2nc(C3=NC(=O)C(C)(C(C)C)N3)c(C(=O)O)cc2C1 (stereo not shown) [Verbindung 2.01, 2-(5-Isopropyl-5-methyl-1H-imidazol-4-on-2-yl)-6-methyl-5,6,7,8-tetrahydrochinolin-3-carbonsäure]
Toleranz (im Wachstum beeinflusst) [1]: gute Toleranz (Boniturnoten von 6 bis 9 (insbesondere 7 bis 9) weisen auf eine gute Toleranz (insbesondere bei Kulturpflanzen) hin)
Toleranz (im Wachstum beeinflusst) [2]: gute Toleranz (Boniturnoten von 6 bis 9 (insbesondere 7 bis 9) weisen auf eine gute Toleranz (insbesondere bei Kulturpflanzen) hin)
Toleranz (im Wachstum beeinflusst) [3]: gute Toleranz (Boniturnoten von 6 bis 9 (insbesondere 7 bis 9) weisen auf eine gute Toleranz (insbesondere bei Kulturpflanzen) hin)
Herbizidwirkung [4]: gute bis sehr gute Herbizidwirkung (Boniturnoten von 1 bis 4 (insbesondere von 1 bis 3) weisen auf eine gute bis sehr gute Herbizidwirkung hin)
Herbizidwirkung [5]: gute bis sehr gute Herbizidwirkung (Boniturnoten von 1 bis 4 (insbesondere von 1 bis 3) weisen auf eine gute bis sehr gute Herbizidwirkung hin)
Herbizidwirkung [6]: gute bis sehr gute Herbizidwirkung (Boniturnoten von 1 bis 4 (insbesondere von 1 bis 3) weisen auf eine gute bis sehr gute Herbizidwirkung hin)
Herbizidwirkung [7]: gute bis sehr gute Herbizidwirkung (Boniturnoten von 1 bis 4 (insbesondere von 1 bis 3) weisen auf eine gute bis sehr gute Herbizidwirkung hin)
Herbizidwirkung [8]: gute bis sehr gute Herbizidwirkung (Boniturnoten von 1 bis 4 (insbesondere von 1 bis 3) weisen auf eine gute bis sehr gute Herbizidwirkung hin)
Herbizidwirkung [9]: gute bis sehr gute Herbizidwirkung (Boniturnoten von 1 bis 4 (insbesondere von 1 bis 3) weisen auf eine gute bis sehr gute Herbizidwirkung hin)
Herbizidwirkung [10]: gute bis sehr gute Herbizidwirkung (Boniturnoten von 1 bis 4 (insbesondere von 1 bis 3) weisen auf eine gute bis sehr gute Herbizidwirkung hin)
Herbizidwirkung [11]: gute bis sehr gute Herbizidwirkung (Boniturnoten von 1 bis 4 (insbesondere von 1 bis 3) weisen auf eine gute bis sehr gute Herbizidwirkung hin)
Herbizidwirkung [12]: gute bis sehr gute Herbizidwirkung (Boniturnoten von 1 bis 4 (insbesondere von 1 bis 3) weisen auf eine gute bis sehr gute Herbizidwirkung hin)
Herbizidwirkung [13]: gute bis sehr gute Herbizidwirkung (Boniturnoten von 1 bis 4 (insbesondere von 1 bis 3) weisen auf eine gute bis sehr gute Herbizidwirkung hin)
Herbizidwirkung [14]: gute bis sehr gute Herbizidwirkung (Boniturnoten von 1 bis 4 (insbesondere von 1 bis 3) weisen auf eine gute bis sehr gute Herbizidwirkung hin)
Herbizidwirkung [15]: gute bis sehr gute Herbizidwirkung (Boniturnoten von 1 bis 4 (insbesondere von 1 bis 3) weisen auf eine gute bis sehr gute Herbizidwirkung hin)
Herbizidwirkung [16]: gute bis sehr gute Herbizidwirkung (Boniturnoten von 1 bis 4 (insbesondere von 1 bis 3) weisen auf eine gute bis sehr gute Herbizidwirkung hin)
Herbizidwirkung [17]: gute bis sehr gute Herbizidwirkung (Boniturnoten von 1 bis 4 (insbesondere von 1 bis 3) weisen auf eine gute bis sehr gute Herbizidwirkung hin)
Herbizidwirkung [18]: gute bis sehr gute Herbizidwirkung (Boniturnoten von 1 bis 4 (insbesondere von 1 bis 3) weisen auf eine gute bis sehr gute Herbizidwirkung hin)
Herbizidwirkung [19]: gute bis sehr gute Herbizidwirkung (Boniturnoten von 1 bis 4 (insbesondere von 1 bis 3) weisen auf eine gute bis sehr gute Herbizidwirkung hin)
Herbizidwirkung [20]: gute bis sehr gute Herbizidwirkung (Boniturnoten von 1 bis 4 (insbesondere von 1 bis 3) weisen auf eine gute bis sehr gute Herbizidwirkung hin)
Herbizidwirkung [21]: gute bis sehr gute Herbizidwirkung (Boniturnoten von 1 bis 4 (insbesondere von 1 bis 3) weisen auf eine gute bis sehr gute Herbizidwirkung hin)
Herbizidwirkung [22]: gute bis sehr gute Herbizidwirkung (Boniturnoten von 1 bis 4 (insbesondere von 1 bis 3) weisen auf eine gute bis sehr gute Herbizidwirkung hin)
Herbizidwirkung [23]: gute bis sehr gute Herbizidwirkung (Boniturnoten von 1 bis 4 (insbesondere von 1 bis 3) weisen auf eine gute bis sehr gute Herbizidwirkung hin)
Herbizidwirkung [24]: gute bis sehr gute Herbizidwirkung (Boniturnoten von 1 bis 4 (insbesondere von 1 bis 3) weisen auf eine gute bis sehr gute Herbizidwirkung hin)
Herbizidwirkung [25]: gute bis sehr gute Herbizidwirkung (Boniturnoten von 1 bis 4 (insbesondere von 1 bis 3) weisen auf eine gute bis sehr gute Herbizidwirkung hin)
Herbizidwirkung [26]: gute bis sehr gute Herbizidwirkung (Boniturnoten von 1 bis 4 (insbesondere von 1 bis 3) weisen auf eine gute bis sehr gute Herbizidwirkung hin)
Herbizidwirkung [27]: gute bis sehr gute Herbizidwirkung (Boniturnoten von 1 bis 4 (insbesondere von 1 bis 3) weisen auf eine gute bis sehr gute Herbizidwirkung hin)
Herbizidwirkung [28]: gute bis sehr gute Herbizidwirkung (Boniturnoten von 1 bis 4 (insbesondere von 1 bis 3) weisen auf eine gute bis sehr gute Herbizidwirkung hin)
Herbizidwirkung [29]: gute bis sehr gute Herbizidwirkung (Boniturnoten von 1 bis 4 (insbesondere von 1 bis 3) weisen auf eine gute bis sehr gute Herbizidwirkung hin)
Herbizidwirkung [30]: gute bis sehr gute Herbizidwirkung (Boniturnoten von 1 bis 4 (insbesondere von 1 bis 3) weisen auf eine gute bis sehr gute Herbizidwirkung hin)
Herbizidwirkung [31]: gute bis sehr gute Herbizidwirkung (Boniturnoten von 1 bis 4 (insbesondere von 1 bis 3) weisen auf eine gute bis sehr gute Herbizidwirkung hin)
Herbizidwirkung [32]: gute bis sehr gute Herbizidwirkung (Boniturnoten von 1 bis 4 (insbesondere von 1 bis 3) weisen auf eine gute bis sehr gute Herbizidwirkung hin)
Herbizidwirkung [33]: gute bis sehr gute Herbizidwirkung (Boniturnoten von 1 bis 4 (insbesondere von 1 bis 3) weisen auf eine gute bis sehr gute Herbizidwirkung hin)
Herbizidwirkung [34]: gute bis sehr gute Herbizidwirkung (Boniturnoten von 1 bis 4 (insbesondere von 1 bis 3) weisen auf eine gute bis sehr gute Herbizidwirkung hin)
Herbizidwirkung [35]: gute bis sehr gute Herbizidwirkung (Boniturnoten von 1 bis 4 (insbesondere von 1 bis 3) weisen auf eine gute bis sehr gute Herbizidwirkung hin)
Herbizidwirkung [36]: gute bis sehr gute Herbizidwirkung (Boniturnoten von 1 bis 4 (insbesondere von 1 bis 3) weisen auf eine gute bis sehr gute Herbizidwirkung hin)
Herbizidwirkung [37]: gute bis sehr gute Herbizidwirkung (Boniturnoten von 1 bis 4 (insbesondere von 1 bis 3) weisen auf eine gute bis sehr gute Herbizidwirkung hin)
